# Structures can show the parent of a compound that is named as a salt. Where two headings read alike, the source gives them in different places.
# Key:
# Ovcar-3 = assay: Human cancer cell line growth inhibition, ovarian Ovcar-3; conditions: for TGI: total growth inhibition
# NCI-H460 = assay: Human cancer cell line growth inhibition, lung-NSC NCI-H460; conditions: for TGI: total growth inhibition
# DU-145 = assay: Human cancer cell line growth inhibition, prostate DU-145; conditions: for TGI: total growth inhibition
# KM20L2 = assay: Human cancer cell line growth inhibition, colon KM20L2; conditions: for TGI: total growth inhibition
# BXPC-3 = assay: Human cancer cell line growth inhibition, pancreas-a BXPC-3; conditions: for TGI: total growth inhibition
# P388 = assay: Murine lymphocytic leukemia P388 cell line inhibition
# SF-295 = assay: Human cancer cell line growth inhibition, CNS SF-295; conditions: for TGI: total growth inhibition
Compound,"GI50 (Ovcar-3; Homo sapiens, OVCAR-3) [µg/mL]",TGI (Ovcar-3; Ovarian Ovcar-3) [µg/mL],"GI50 (NCI-H460; Homo sapiens, NCI-H460) [µg/mL]",TGI (NCI-H460; Lung-NSC NCI-H460) [µg/mL],"GI50 (DU-145; Homo sapiens, DU-145) [µg/mL]",TGI (DU-145; Prostate DU-145) [µg/mL],TGI (KM20L2; Colon KM20L2) [µg/mL],"GI50 (KM20L2; Homo sapiens, KM-20L2) [µg/mL]","GI50 (BXPC-3; Homo sapiens, BXPC-3) [µg/mL]",TGI (BXPC-3; Pancreas-a BXPC-3) [µg/mL],ED50 (P388; Murine leukemia P388) [µg/mL],TGI (SF-295; CNS SF-295) [µg/mL],"GI50 (SF-295; Homo sapiens, SF-295) [µg/mL]",GI50 (Ovcar-3; Ovarian Ovcar-3) [µg/mL],GI50 (NCI-H460; Lung-NSC NCI-H460) [µg/mL],GI50 (DU-145; Prostate DU-145) [µg/mL],GI50 (KM20L2; Colon KM20L2) [µg/mL],GI50 (BXPC-3; Pancreas-a BXPC-3) [µg/mL],GI50 (SF-295; CNS SF-295) [µg/mL],ED50 (P388) [µg/mL]
"O=C1N[C@H]2[C@H](O)[C@H](O)[C@@H](O)[C@H](O)[C@@H]2c2cc3c(c(O)c21)OCO3 [Compound 1a, (+)-Pancratistatin]",0.032,0.11,0.048,0.43,0.016,0.1,0.23,0.026,0.028,0.14,0.032,0.091,0.017,,,,,,,
"O=C1N[C@@H]2C(=C[C@H](O)[C@@H](O)[C@H]2O)c2cc3c(c(O)c21)OCO3 [Compound 2, (+)-narciclasine, reference compound]",,0.044,,0.1,,0.036,0.012,,,0.045,0.0044,0.049,,0.016,0.022,0.0071,0.018,0.016,0.012,
"CC1(C)O[C@@H]2[C@H](O1)[C@@H](O)C=C1c3cc4c(c(O)c3C(=O)N[C@H]12)OCO4 [Compound 3, Narciclasine 3,4-acetonide]",> 10,>10,> 10,>10,> 10,>10,>10,> 10,> 10,>10,>10,>10,> 10,,,,,,,
"CC(=O)Oc1c2c(cc3c1C(=O)NC1C3=CC(OC(C)=O)C3OC(C)(C)OC13)OCO2 (stereo not shown) [Compound 4, 2,7-Di-acetoxy-narciclasine 3,4-acetonide]",,>10,,>10,,>10,>10,,,>10,>10,>10,,>10,>10,>10,>10,>10,>10,
"CC(=O)OC1C=C2c3cc4c(c(O)c3C(=O)NC2C2OC(C)(C)OC12)OCO4 (stereo not shown) [Compound 5, 2-Acetoxy-narciclasine 3,4-acetonide]",,>10,,>10,,>10,>10,,,>10,>10,>10,,>10,>10,>10,>10,>10,>10,
"CC(=O)Oc1c2c(cc3c1C(=O)NC1C4OC(C)(C)OC4C(OC(C)=O)C4OC314)OCO2 (stereo not drawn) [Compound 6, 1,10b-α-epoxy-2,7-diacetoxy-narciclasine 3,4-acetonide]",,>10,,>10,,>10,>10,,,>10,>10,>10,,>10,>10,>10,>10,>10,>10,
"COC1c2c([nH]c(=O)c3c(O)c4c(cc23)OCO4)C2OC(C)(C)OC2C1O (stereo not shown) [Compound 7, 1-Methoxy-Isonarciclasine 3,4-acetonide]",,>10,,>10,,>10,>10,,,>10,>10,>10,,>10,>10,>10,>10,>10,>10,
"CC1(C)O[C@@H]2[C@@H](O)[C@@H](O)[C@@H]3c4cc5c(c(O)c4C(=O)N[C@H]3[C@@H]2O1)OCO5 [Compound 8, 1-Isopancratistatin 3,4-acetonide]",5,>10,> 10,>10,3.8,>10,>10,6.9,8.8,>10,2.6,>10,7.2,,,,,,,
"CC1(C)O[C@@H]2[C@@H](O)[C@@H](O)[C@H]3c4cc5c(c(O)c4C(=O)N[C@H]3[C@@H]2O1)OCO5 [Compound 9, B/C Cis-1-Isopancratistatin 3,4-acetonide]",,>10,,>10,,>10,>10,,,>10,>10,>10,,>10,>10,>10,>10,>10,>10,
"CC1(C)O[C@@H]2[C@@H](O)[C@H]3OC34c3cc5c(c(O)c3C(=O)N[C@H]4[C@@H]2O1)OCO5 (stereo partly drawn) [Compound 10, 1,10b-α-epoxy-narciclasine 3,4-acetonide]",> 10,>10,> 10,>10,> 10,>10,>10,> 10,> 10,>10,>10,>10,> 10,,,,,,,
"CC1(C)O[C@H]2[C@@H]3NC(=O)c4c(cc5c(c4O)OCO5)[C@H]3C3OS(=O)(=O)O[C@@H]3[C@H]2O1 (stereo partly shown) [Compound 12, 1-Isopancratistatin 1,2 Cyclic Sulfate-3,4-acetonide]",> 10,>10,> 10,>10,> 10,>10,>10,> 10,> 10,>10,>10,>10,> 10,,,,,,,
"O=C(OC1C(O)C(O)C(O)C2NC(=O)c3c(cc4c(c3O)OCO4)C21)c1ccccc1 (stereo not shown) [Compound 13, Pancratistatin 1-Benzoate]",,0.0019,,,,0.0026,0.0034,,,0.0053,,0.0049,,<0.001,<0.001,,<0.001,0.00094,0.0013,0.0017

# Reference: patent US6949647B2, “Synthesis of pancratistatin” (Arizona Board of Regents, priority 2000, dated 2005)
